Laboratory results reported in BigSolDB 2.1.

CC(=CC(C)=Nc1c(C)cccc1C)Nc1c(C)cccc1C
solubility (mole fraction)
Details | 273.15 K | 278.15 K | 283.15 K | 288.15 K | 293.15 K | 298.15 K | 303.15 K
in THF | 0.345 | 0.362 | 0.381 | 0.403 | 0.429 | 0.456 | 0.487
in diethyl ether | 0.188 | 0.204 | 0.22 | 0.239 | 0.265 | 0.295 | 0.334
in ethanol | 0.0093 | 0.0099 | 0.0107 | 0.0117 | 0.0129 | 0.0143 | 0.0166
in methanol | 0.0015 | 0.0017 | 0.002 | 0.0024 | 0.0029 | 0.0033 | 0.0041
in n-hexane | 0.167 | 0.194 | 0.223 | 0.253 | 0.285 | 0.316 | 0.347
in toluene | 0.266 | 0.296 | 0.324 | 0.347 | 0.374 | 0.433 | 0.503
